Laboratory results from US20240228490A1, “HETEROCYCLIC DERIVATIVE INHIBITOR AND PREPARATION METHOD THEREFOR AND APPLICATION THEREOF” (Shanghai Hansoh Biomedical Co., Ltd., priority 2021, published 2024).
pIC50: −log10 of the molar value.

Assays:
[1] = Pharmacokinetic assay in Balb/C mice; details: male, mouse, plasma, po, 1 mg/kg
Protocol: Balb/C mice were used as test animals.
(§1) Male Balb/C mice (6 mice per example), purchased from Shanghai Jiesijie Laboratory Animal Co., LTD, with Certificate No.: SCXK (Shanghai) 2013-0006 N0.311620400001794.
(§2) 5 g of hydroxyethyl cellulose (HEC, CMC-Na, viscosity: 800-1200 Cps) was weighed and dissolved in 1000 mL of purified water, followed by the addition of 10 g of Tween 80. The mixture was mixed well to obtain a clear solution.
(§3) 2.05 mg of the compound was weighed and dissolved in the solution. The mixture was shaken well, crushed in a cell crusher for 1 minute, and sonicated for 15 minutes to obtain a suspension with a concentration of 0.1 mg/mL.
(§4) After an overnight fast, male Balb/C mice were administered p.o. with the test compound at a dose of 1 mg/kg and a volume of 10 mL/kg.
(§5) 0.04 mL of blood was taken from the orbit of the mouse at 0, 0.5, 1, 2, 4, 6, 8 and 24 hours after the administration. The samples were stored in EDTA-K2 tubes, and centrifuged for 6 minutes at 4° C., 6000 rpm to separate the plasma. The plasma samples were stored at −80° C. The mouse was fed 4 hours after the administration.
(§6) • Liquid chromatography condition: Shimadzu LC-20AD pump • Mass spectrometry condition: AB Sciex API 4000 mass spectrometer • Chromatographic column: phenomenex Gemiu 5 μm C18 50×4.6 mm • Mobile phase: Eluent A was 0.1% formic acid in water, and Eluent B was acetonitrile • Flow rate: 0.8 mL/min • Elution time: 0-4.0 minutes, the eluent is as follows:
(§7) The main parameters of pharmacokinetics were calculated by WinNonlin 8.2.

PARP1 enzyme = PARP1 enzyme (Homo sapiens (Human), UniProt P09874); assay: Inhibitory activity on PARP1 enzyme (chemiluminescence); format: biochemical
Protocol: The inhibitory activity of the compounds on PARP1 enzyme was determined by the chemiluminescence method in the experiment. The experiment was carried out in a 384-well plate. Coating histones in a 384-well plate: 5×histone solution was diluted 5 folds with PBS, added to a 384-well ELISA plate (25 μL per well), and incubated at 4° C. overnight. […] A mixture of PARP reaction biotin-labeled substrate, activated DNA, 10×PARP buffer and water was added (12.5 μL per well). Compound solutions with different concentrations were formulated using the experimental buffer (10% DMSO aqueous solution containing 1.25 mM DTT). The final detection concentration started from 100 nM, with 3-fold dilution and 8 concentrations. The compound solutions were added to the reaction wells of the 384-well plate (2.5 μL per well). 2.5 μL of 10% DMSO aqueous solution containing 1.25 mM DTT was added to the positive control well and blank well (2.5 μL per well). […] The plate was centrifuged at 1000 rpm for 1 minute, and reacted at room temperature for 60 minutes. […] Streptavidin-HRP solution diluted 50 folds with Blocking buffer 3 was added (25 μL per well), and the plate was incubated at room temperature for 30 minutes. […] The luminescence reaction solution obtained by mixing ECL substrate A and ELISA ECL substrate B (1:1) was added (50 μL per well) for reaction. The chemiluminescence values were measured immediately with a BioTek Synergy H1 or Envision instrument.
The chemiluminescence values were measured with a BioTek Synergy H1 or Envision instrument. The inhibition rate was calculated, and the concentration and inhibition rate were fitted to a nonlinear regression curve using Graphpad Prism software to obtain the IC50 value.

[2] = system: BRCA2 Knockout DLD-1 cells; assay: Inhibition of proliferation of BRCA2 Knockout DLD-1 cells (CellTiter-Glo); format: cell-based; details: Homo sapiens, about 144 hours incubation
Protocol: BRCA2 Knockout DLD-1 cells were cultured using RPMI1640 culture medium containing 10% FBS to an appropriate cell density. The cells were collected, and adjusted to an appropriate cell concentration using the complete culture medium. The cell suspension was spread on a 96-well plate (90 μL per well), and placed in a 37° C., 5% CO2 incubator overnight. Compound solutions of different concentrations were formulated using DMSO and culture medium, and vehicle control was set up. The compound solutions were added to the 96-well plate (10 μL per well), and the plate was incubated in a 37° C., 5% CO2 incubator for about 144 hours. CellTiter-Glo solution was added, and the plate was shaken to mix evenly, and incubated in the dark for 10 to 30 minutes. The values were measured with a Synergy H1 or Envision microplate reader.
The inhibition rate was calculated using the luminescence signal value. The concentration and inhibition rate were fitted to a nonlinear regression curve using Graphpad Prism software to obtain the IC50 value.

[3] = Bidirectional permeability through Caco-2 cell model; details: human
Protocol: (§8) 100 μL of transport buffer (HBSS containing 10 μM test compound, 0.5% BSA, and 0.5% DMSO) was added to the administration end of A to B • b. 300 μL of transport buffer (HBSS containing 0.5% BSA) was added to the receiving end of A to B • c. 300 μL of transport buffer (HBSS containing 10 μM test compound, 0.5% BSA, and 0.5% DMSO) was added to the administration end of B to A • d. 100 μL of transport buffer (HBSS containing 0.5% BSA) was added to the receiving end of B to A • e. Incubation for 2 hours • d. Samples were taken, processed and detected by mass spectrometry.
(§9) • Instrument: liquid chromatography; • Chromatographic column: Waters XSelect HSS T3 C18 (2.1*50 mm, 2.5 μm); • Mobile phase: phase A: water containing 0.1% formic acid; phase B: acetonitrile containing 0.1% formic acid.
(§10) • Instrument: API4000 liquid chromatography-mass spectrometer; • Ion source: electrospray ionization source (ESI); • Detection method: positive ion detection; • Scan mode: multiple reaction monitoring (MRM) mode.

[4] = system: human colorectal cancer cell line DLD-1 BRCA2−/− subcutaneous xenograft tumor; assay: In vivo pharmacodynamic study in DLD-1 BRCA2−/− subcutaneous xenograft tumor model; details: oral, once/day, 21 days
Protocol: BALB/c nude mice, 6 to 8 weeks old, 9, purchased from the Experimental Animal Management Department of Shanghai Institute of Family Planning
The recovered cells were plated in a cell culture flask (the cell type, date, name of the experimenter and the like were labeled on the wall of the flask), and cultured in a CO2 incubator (the temperature was 37° C. and the CO2 concentration was 5% in the incubator). • b. Cells were passaged once every three days. After passage, the cells continued to be cultured in the CO2 incubator. This process was repeated until the number of cells was sufficient for the in vivo efficacy test. • c. The cultured cells were collected, and counted with an automatic cell counter. According to the counting results, the cells were resuspended with PBS to obtain a cell suspension (density: 5×10^7/mL), which was placed in an ice box for later use.
The nude mice were labeled with disposable universal ear tags for rats and mice before inoculation. • b. During the inoculation, the cell suspension was mixed well. 0.1 to 1 mL of the cell suspension was drawn with a 1 mL syringe, air bubbles were removed, and then the syringe was placed on an ice pack for later use. • c. The nude mouse was bound with the left hand. The position on the right side of the back close to the right shoulder of the nude mouse (inoculation site) was disinfected with 75% alcohol. Inoculation started after 30 seconds. • d. The test nude mice were successively inoculated (each mouse was inoculated with 0.1 mL of cell suspension).
According to the tumor growth, the tumor was measured on 10 to 18 days after the inoculation, and the tumor size was calculated.
Calculation of tumor volume: tumor volume (mm^3)=length (mm)×width (mm)×width (mm)/2 • b. The tumor-bearing mice were grouped according to their body weight and tumor size by random grouping. • c. […] Tumors were measured and the mice were weighed twice a week after the administration of test compounds began. • e. Animals were euthanized at the end of the experiment. • f. Data were processed by using softwares such as Excel.

in vivo = details: male, Balb/C, mouse, po, 1 mg/kg
Protocol: Balb/C mice were used as test animals.
as §1, §2, §3, §4, §5, §6, §7

in vitro = details: human, Caco-2
Protocol: as §8, §9, §10

PAR in tumor tissue = assay: PD part of PK/PD study in MDA-MB-436 subcutaneous xenograft model: inhibition of PAR in tumor tissue (Western blot); format: in vivo, BALB/c nude mice; details: within 24 hours after a single administration, MDA-MB-436 model
Protocol: • a. Grouping: According to the growth of the tumor, when the tumor grew to a volume of 300-500 mm^3, tumor-bearing mice were selected according to the experimental design and randomly grouped (3 mice per each time point) to start the PK/PD test. • b. Fasting: All tumor-bearing mice were fasted (with free access to water) overnight (fasting >8 hours) before the administration. • c. Administration: Except for the blank control group, a single oral administration was carried out according to the time of the experimental design, and the administration volume was 10 mL/kg. • d. Sample collection: The mice were euthanized by CO2 asphyxiation according to the time of the experimental design, and the samples were collected. One plasma sample and three tumor tissue samples were collected from each animal.
Tumor tissue collection: After the blood collection, the tumor tissue was collected. The collected tumor tissue was divided into 3 aliquots (˜0.1 g each), placed into labeled 2 mL centrifuge tubes, and stored in a refrigerator at −80±10° C. for PK or PD test.
1 mL of tumor lysis solution was added to each tube of tumor tissue sample, followed by the addition of steel beads. […]
Protein quantification was performed by BCA protein quantification kit. […]
c. […] PAR was subjected to fluorescence imaging, and Gapdh internal control was subjected to fluorescence imaging using IRDye 800 CW channel.

PARP1 enzyme, sequence (P09874 whole entry): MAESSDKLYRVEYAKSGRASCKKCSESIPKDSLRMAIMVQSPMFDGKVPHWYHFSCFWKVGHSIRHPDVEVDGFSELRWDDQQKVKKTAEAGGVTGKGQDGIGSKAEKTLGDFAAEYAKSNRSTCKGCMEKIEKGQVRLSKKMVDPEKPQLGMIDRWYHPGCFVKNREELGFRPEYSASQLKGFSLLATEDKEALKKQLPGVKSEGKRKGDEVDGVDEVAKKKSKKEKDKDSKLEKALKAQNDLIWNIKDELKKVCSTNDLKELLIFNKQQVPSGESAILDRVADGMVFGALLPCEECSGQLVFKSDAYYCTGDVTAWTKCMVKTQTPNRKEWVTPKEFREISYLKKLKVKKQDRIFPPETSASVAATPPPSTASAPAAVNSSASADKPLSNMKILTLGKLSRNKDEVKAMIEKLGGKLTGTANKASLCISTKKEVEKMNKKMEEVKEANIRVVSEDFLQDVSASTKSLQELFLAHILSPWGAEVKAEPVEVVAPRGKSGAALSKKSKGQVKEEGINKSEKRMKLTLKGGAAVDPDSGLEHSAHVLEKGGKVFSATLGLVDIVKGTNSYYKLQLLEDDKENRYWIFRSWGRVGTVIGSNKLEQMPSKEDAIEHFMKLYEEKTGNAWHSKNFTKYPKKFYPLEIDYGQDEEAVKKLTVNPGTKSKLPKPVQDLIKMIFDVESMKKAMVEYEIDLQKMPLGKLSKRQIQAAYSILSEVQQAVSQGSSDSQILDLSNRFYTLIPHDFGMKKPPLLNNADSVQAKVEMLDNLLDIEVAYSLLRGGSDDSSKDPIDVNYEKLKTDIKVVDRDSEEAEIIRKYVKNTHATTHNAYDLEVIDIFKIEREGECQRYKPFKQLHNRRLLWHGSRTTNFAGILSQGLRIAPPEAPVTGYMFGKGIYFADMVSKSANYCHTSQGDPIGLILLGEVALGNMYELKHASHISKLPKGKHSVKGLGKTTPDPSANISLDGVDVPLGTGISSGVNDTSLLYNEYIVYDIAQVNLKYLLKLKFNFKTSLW

Row | Structure (SMILES) | AUC(0-t) [1] | Cmax [1] | Tmax [1] | half-life [1] | pIC50 (PARP1 enzyme) | pIC50 [2] | Papp A→B at 2 h, 10 μM [3] | Papp B→A at 2 h, 10 μM [3] | efflux ratio at 2 h, 10 μM [3] | Tumor growth inhibition rate TGI (%) [4] | Animal's body weight [4] | AUC(0-t) (in vivo) | Cmax (in vivo) | Tmax (in vivo) | half-life (in vivo) | Papp A→B at 2 h, 10 μM (in vitro) | Papp B→A at 2 h, 10 μM (in vitro) | efflux ratio at 2 h, 10 μM (in vitro) | Inhibition of intratumoral PAR compared with AZD5305 (PAR in tumor tissue)
1 | CCc1cc2ncc(CN3CC=C(c4ccc(C(=O)NC)nc4F)CC3)cc2[nH]c1=O [Example 36, 1′-((7-Ethyl-6-oxo-5,6-dihydro-1,5-naphthyridin-3-yl)methyl)-2-fluoro-N-methyl-1′,2′,3′,6′-tetrahydro-[3,4′-bipyridine]-6-carboxamide] | 61900 ng·h/mL | 6550 ng/mL | 0.5 h | 4.6 h | 9.10 | 8.80 | 14.8 ×10⁻⁶ cm/s | 15.6 ×10⁻⁶ cm/s | 1.1 | – | – | – | – | – | – | – | – | – | –
2 | CCc1cc2ncc(CN3CC=C(c4cnc(C(=O)NC)s4)CC3)cc2[nH]c1=O [Example 46, 5-(1-((7-Ethyl-6-oxo-5,6-dihydro-1,5-naphthyridin-3-yl)methyl)-1,2,3,6-tetrahydropyridin-4-yl)-N-methylthiazole-2-carboxamide] | – | – | – | – | 9.22 | – | – | – | – | > 90% | – | – | – | – | – | – | – | – | –
3 | CCc1cc2ncc(CN3CCN(c4cnc5c(NC)nc(C)cc5c4)CC3)cc2[nH]c1=O [Example 72, 3-Ethyl-7-((4-(6-methyl-8-(methylamino)-1,7-naphthyridin-3-yl)piperazin-1-yl)methyl)-1,5-naphthyridin-2(1H)-one] | – | – | – | – | – | 8.32 | 5.23 ×10⁻⁶ cm/s | 12.7 ×10⁻⁶ cm/s | 2.5 | – | – | – | – | – | – | – | – | – | –
4 | CCc1cc2ncc(CN3CC=C(c4ccc(C(=O)NC5CC5)nc4)CC3)cc2[nH]c1=O [Example 29, N-Cyclopropyl-1′-((7-ethyl-6-oxo-5,6-dihydro-1,5-naphthyridin-3-yl)methyl)-1′,2′,3′,6′-tetrahydro-[3,4′-bipyridine]-6-carboxamide] | 60600 ng·h/mL | 8270 ng/mL | 0.5 h | 3.7 h | 9.01 | 8.72 | 12.2 ×10⁻⁶ cm/s | 19 ×10⁻⁶ cm/s | 1.6 | > 90% | no significant decrease | – | – | – | – | – | – | – | –
5 | CNC(=O)c1ccc(C2=CCN(Cc3cnc4cc(C5CC5)c(=O)[nH]c4c3)CC2)cn1 [Example 45, 1′-((7-Cyclopropyl-6-oxo-5,6-dihydro-1,5-naphthyridin-3-yl)methyl)-N-methyl-1′,2′,3′,6′-tetrahydro-[3,4′-bipyridine]-6-carboxamide] | – | – | – | – | 9.10 | 8.46 | – | – | – | – | – | 221000 ng·h/mL | 8980 ng/mL | 1 h | 23 h | 9.8 ×10⁻⁶ cm/s | 15.3 ×10⁻⁶ cm/s | 1.6 | –
6 | CCc1cc2ncc(CN3CC=C(c4ccc(C(=O)NC)nc4)CC3)cc2[nH]c1=O [Example 1, 1′-((7-Ethyl-6-oxo-5,6-dihydro-1,5-naphthyridin-3-yl)methyl)-N-methyl-1′,2′,3′,6′-tetrahydro-[3,4′-bipyridine]-6-carboxamide] | 119000 ng·h/mL | 9930 ng/mL | 1 h | 6.9 h | 9.03 | 8.92 | 12.8 ×10⁻⁶ cm/s | 19.2 ×10⁻⁶ cm/s | – | > 90% | no significant decrease | – | – | – | – | – | – | – | comparable
7 | CCc1cc2ncc(CN3CC=C(c4ccc(C(=O)NC)nc4C#N)CC3)cc2[nH]c1=O [Example 35, 2-Cyano-1′-((7-ethyl-6-oxo-5,6-dihydro-1,5-naphthyridin-3-yl)methyl)-N-methyl-1′,2′,3′,6′-tetrahydro-[3,4′-bipyridine]-6-carboxamide] | – | – | – | – | 9.00 | 8.64 | – | – | – | > 90% | – | 43200 ng·h/mL | 6100 ng/mL | 0.5 h | 2.7 h | 5.19 ×10⁻⁶ cm/s | 15.7 ×10⁻⁶ cm/s | 3 | –
8 | CCc1cc2ncc(CN3CCN(c4cnc5c(NC)nccc5c4)CC3)cc2[nH]c1=O [Example 3, 3-Ethyl-7-((4-(8-(methylamino)-1,7-naphthyridin-3-yl)piperazin-1-yl)methyl)-1,5-naphthyridin-2(1H)-one] | 12700 ng·h/mL | 1570 ng/mL | 0.5 h | 3.7 h | 9.40 | – | 7.15 ×10⁻⁶ cm/s | 24.1 ×10⁻⁶ cm/s | 3.4 | > 90% | no significant decrease | – | – | – | – | – | – | – | –
